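Five compound concentrations were applied to cells in 96-well plates for 48 hours; endpoints were derived by simple linear interpolation of the resulting dose-response curve. The concentration for 50% growth inhibition is given as GI50.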 The source made the active and inactive calls. No stated cut-off is given here; in the data, active = GI50 up to about 1.1 µM and inactive = higher.
What was measured:
Experiment in all cases: DTP human tumour cell line panel, 48 h
NCI-H23 = tested on: NCI-H23
HCT-116 = tested on: HCT-116
MOLT-4 = tested on: MOLT-4
SNB-75 = tested on: SNB-75
SW-620 = tested on: SW-620
MDA-MB-435 = tested on: MDA-MB-435
BT-549 = tested on: BT-549
SK-MEL-28 = tested on: SK-MEL-28
SF-295 = tested on: SF-295
Hs-578T = tested on: Hs-578T
T47D = tested on: T47D
NCI-H226 = tested on: NCI-H226
M19-MEL = tested on: M19-MEL
MCF7 = tested on: MCF7
U-251 = tested on: U-251
SNB-19 = tested on: SNB-19
UO-31 = tested on: UO-31
OVCAR-5 = tested on: OVCAR-5
M14 = tested on: M14
RXF 393 = tested on: RXF 393

In the case of `COc1ccc(Cl)cc1NC(=O)c1cccc([N+](=O)[O-])c1O`, the GI50 (NCI-H23) is reported as 10.4 µM (inactive), the GI50 (HCT-116) is reported as 16.6 µM (inactive) and the GI50 (MOLT-4) is reported as 16.8 µM (inactive). The GI50 (SNB-75) was 17.8 µM (inactive), the GI50 (SW-620) was 22.7 µM (inactive) and the GI50 (MDA-MB-435) was 14.4 µM (inactive). For the same compound, the GI50 (BT-549) was 4.37 µM (inactive), the GI50 (SK-MEL-28) was 11.7 µM (inactive) and the GI50 (SF-295) was 17.8 µM (inactive). For the same compound, the GI50 (Hs-578T) was 17.5 µM (inactive), the GI50 (T47D) was 9.25 µM (inactive) and the GI50 (NCI-H226) was 15 µM (inactive). For the same compound, the GI50 (M19-MEL) was 9.79 µM (inactive), the GI50 (MCF7) was 20.9 µM (inactive) and the GI50 (U-251) was 11.9 µM (inactive). The GI50 (SNB-19) was 8.97 µM (inactive), the GI50 (UO-31) was 7.35 µM (inactive) and the GI50 (OVCAR-5) was 27.8 µM (inactive). For the same compound, the GI50 (M14) was 24.4 µM (inactive) and the GI50 (RXF 393) was 12 µM (inactive).
For `CS(=O)(=O)CC1=Nc2nnc(CCCCCCCc3nnc4n3C(=O)C(CS(C)(=O)=O)=N4)n2C1=O`, the GI50 (NCI-H23) was > 100 µM (inactive), the GI50 (HCT-116) was > 100 µM (inactive) and the GI50 (MOLT-4) was > 100 µM (inactive). For the same compound, the GI50 (SNB-75) was > 100 µM (inactive), the GI50 (SW-620) was > 100 µM (inactive) and the GI50 (SK-MEL-28) was > 100 µM (inactive). For the same compound, the GI50 (SF-295) was > 100 µM (inactive), the GI50 (NCI-H226) was > 100 µM (inactive) and the GI50 (M19-MEL) was > 100 µM (inactive). The GI50 (U-251) was > 100 µM (inactive), the GI50 (SNB-19) was > 100 µM (inactive) and the GI50 (UO-31) was > 100 µM (inactive). For the same compound, the GI50 (OVCAR-5) was > 100 µM (inactive), the GI50 (M14) was > 100 µM (inactive) and the GI50 (RXF 393) was > 100 µM (inactive).
With `COc1ccc2c(c1)C(=O)Cc1ccccc1CC2` the GI50 (NCI-H23) was > 100 µM (inactive), the GI50 (HCT-116) was > 100 µM (inactive) and the GI50 (MOLT-4) was > 100 µM (inactive). The GI50 (SNB-75) was 27.7 µM (inactive), the GI50 (SW-620) was > 100 µM (inactive) and the GI50 (SK-MEL-28) was > 100 µM (inactive). The GI50 (SF-295) was > 100 µM (inactive), the GI50 (NCI-H226) was > 100 µM (inactive) and the GI50 (M19-MEL) was > 100 µM (inactive). For the same compound, the GI50 (U-251) was > 100 µM (inactive), the GI50 (SNB-19) was > 100 µM (inactive) and the GI50 (UO-31) was > 100 µM (inactive). For the same compound, the GI50 (OVCAR-5) was > 100 µM (inactive), the GI50 (M14) was > 100 µM (inactive) and the GI50 (RXF 393) was > 100 µM (inactive).
With `CC(=O)n1c2c(c(=O)n1-c1ccccc1)[S+]([O-])CCC2` (stereo not drawn) the GI50 (NCI-H23) was > 100 µM (inactive), the GI50 (HCT-116) was 44.1 µM (inactive) and the GI50 (MOLT-4) was 1.25 µM (inactive). For the same compound, the GI50 (SNB-75) was 51.4 µM (inactive), the GI50 (SW-620) was 33.3 µM (inactive) and the GI50 (SK-MEL-28) was > 100 µM (inactive). For the same compound, the GI50 (NCI-H226) was > 100 µM (inactive), the GI50 (M19-MEL) was 29.6 µM (inactive) and the GI50 (U-251) was > 100 µM (inactive). For the same compound, the GI50 (SNB-19) was > 100 µM (inactive), the GI50 (UO-31) was > 100 µM (inactive) and the GI50 (OVCAR-5) was > 100 µM (inactive). The GI50 (M14) was 49.7 µM (inactive) and the GI50 (RXF 393) was 15.6 µM (inactive).
With `CCOC(=O)C1Cc2c(ccc(OC)c2OC)C(=O)C1N` (stereo not drawn) the GI50 (NCI-H23) was > 100 µM (inactive), the GI50 (HCT-116) was > 100 µM (inactive) and the GI50 (MOLT-4) was 91.4 µM (inactive). The GI50 (SNB-75) was > 100 µM (inactive), the GI50 (SW-620) was > 100 µM (inactive) and the GI50 (SK-MEL-28) was > 100 µM (inactive). The GI50 (SF-295) was > 100 µM (inactive), the GI50 (NCI-H226) was > 100 µM (inactive) and the GI50 (M19-MEL) was > 100 µM (inactive). The GI50 (U-251) was > 100 µM (inactive), the GI50 (SNB-19) was > 100 µM (inactive) and the GI50 (UO-31) was > 100 µM (inactive). The GI50 (OVCAR-5) was > 100 µM (inactive), the GI50 (M14) was > 100 µM (inactive) and the GI50 (RXF 393) was > 100 µM (inactive).
With `CN1C2(c3ccccc3)C(C(=O)c3ccccc3)=C(C(=O)c3ccccc3)C1(c1ccccc1)c1c(-c3ccccc3)sc(-c3ccccc3)c12` the GI50 (NCI-H23) was > 100 µM (inactive), the GI50 (HCT-116) was > 100 µM (inactive) and the GI50 (SNB-75) was > 100 µM (inactive). The GI50 (SW-620) was > 100 µM (inactive), the GI50 (SK-MEL-28) was > 100 µM (inactive) and the GI50 (SF-295) was > 100 µM (inactive). For the same compound, the GI50 (NCI-H226) was 78.5 µM (inactive), the GI50 (M19-MEL) was > 100 µM (inactive) and the GI50 (U-251) was > 100 µM (inactive). The GI50 (SNB-19) was > 100 µM (inactive), the GI50 (UO-31) was > 100 µM (inactive) and the GI50 (OVCAR-5) was > 100 µM (inactive). The GI50 (M14) was > 100 µM (inactive) and the GI50 (RXF 393) was > 100 µM (inactive).
With `Cc1nc2ccccc2c(=O)n1/N=C(\N=N\c1ccccc1)c1ccccc1Cl` the GI50 (NCI-H23) was 27.7 µM (inactive), the GI50 (HCT-116) was > 10 µM (inactive) and the GI50 (MOLT-4) was 14.8 µM (inactive). The GI50 (SNB-75) was 23.8 µM (inactive), the GI50 (SW-620) was > 88.5 µM (inactive) and the GI50 (SK-MEL-28) was 79.3 µM (inactive). The GI50 (SF-295) was 1.04 µM (active), the GI50 (NCI-H226) was 14.5 µM (inactive) and the GI50 (M19-MEL) was > 84.5 µM (inactive). For the same compound, the GI50 (U-251) was 40.6 µM (inactive), the GI50 (SNB-19) was 48.1 µM (inactive) and the GI50 (UO-31) was 29.2 µM (inactive). The GI50 (OVCAR-5) was > 100 µM (inactive), the GI50 (M14) was > 86.7 µM (inactive) and the GI50 (RXF 393) was 21.6 µM (inactive).
For `C[N+](C)(C)CC(=O)N/N=C/c1oc(-c2c(O)ccc3ccccc23)c(-c2c(O)ccc3ccccc23)c1[N+](=O)[O-]`, the GI50 (NCI-H23) was 16.4 µM (inactive), the GI50 (HCT-116) was 12.2 µM (inactive) and the GI50 (MOLT-4) was 14.5 µM (inactive). For the same compound, the GI50 (SNB-75) was 14.7 µM (inactive), the GI50 (SW-620) was 21.5 µM (inactive) and the GI50 (SK-MEL-28) was 21.3 µM (inactive). For the same compound, the GI50 (SF-295) was 17.1 µM (inactive), the GI50 (NCI-H226) was 17.4 µM (inactive) and the GI50 (M19-MEL) was 20.4 µM (inactive). For the same compound, the GI50 (U-251) was 15 µM (inactive), the GI50 (SNB-19) was 28.2 µM (inactive) and the GI50 (UO-31) was 7.36 µM (inactive). The GI50 (OVCAR-5) was 22.1 µM (inactive), the GI50 (M14) was 17.3 µM (inactive) and the GI50 (RXF 393) was 11.2 µM (inactive).
